In BigSolDB 2.1:

Cl.c1ccc([C@H]2CN3CCSC3=N2)cc1
Conditions | solubility (mole fraction)
in DMSO, 293.15 K | 0.0117
in DMSO, 298.15 K | 0.0129
in DMSO, 303.15 K | 0.014
in DMSO, 308.15 K | 0.0157
in DMSO, 313.15 K | 0.0173
in DMSO, 318.15 K | 0.0193
in DMSO, 323.15 K | 0.0218
in DMSO, 328.15 K | 0.0237
in DMSO, 333.15 K | 0.0265
in ethanol, 283.15 K | 0.00753
in ethanol, 288.15 K | 0.00881
in ethanol, 293.15 K | 0.0101
in ethanol, 298.15 K | 0.0119
in ethanol, 303.15 K | 0.0153
in ethanol, 308.15 K | 0.0178
in ethanol, 313.15 K | 0.0201
in ethanol, 318.15 K | 0.0244
in ethanol, 323.15 K | 0.0289
in isobutanol, 283.15 K | 0.000869
in isobutanol, 288.15 K | 0.00131
in isobutanol, 293.15 K | 0.00182
in isobutanol, 298.15 K | 0.00247
in isobutanol, 303.15 K | 0.00334
in isobutanol, 308.15 K | 0.00447
in isobutanol, 313.15 K | 0.00577
in isobutanol, 318.15 K | 0.00747
in isobutanol, 323.15 K | 0.00937
in isopentanol, 283.15 K | 0.00108
in isopentanol, 288.15 K | 0.00134
in isopentanol, 293.15 K | 0.00182
in isopentanol, 298.15 K | 0.00234
in isopentanol, 303.15 K | 0.00287
in isopentanol, 308.15 K | 0.00402
in isopentanol, 313.15 K | 0.00542
in isopentanol, 318.15 K | 0.00676
in isopentanol, 323.15 K | 0.00873
in isopropanol, 283.15 K | 0.000856
in isopropanol, 288.15 K | 0.00104
in isopropanol, 293.15 K | 0.00138
in isopropanol, 298.15 K | 0.00179
in isopropanol, 303.15 K | 0.00225
in isopropanol, 308.15 K | 0.00275
in isopropanol, 313.15 K | 0.00319
in isopropanol, 318.15 K | 0.00401
in isopropanol, 323.15 K | 0.00475
in methanol, 283.15 K | 0.0298
in methanol, 288.15 K | 0.0357
in methanol, 293.15 K | 0.0429
in methanol, 298.15 K | 0.0513
in methanol, 303.15 K | 0.0595
in methanol, 308.15 K | 0.0696
in methanol, 313.15 K | 0.0816
in methanol, 318.15 K | 0.0955
in methanol, 323.15 K | 0.109
in n-butanol, 283.15 K | 0.00182
in n-butanol, 288.15 K | 0.00236
in n-butanol, 293.15 K | 0.00311
in n-butanol, 298.15 K | 0.00407
in n-butanol, 303.15 K | 0.00542
in n-butanol, 308.15 K | 0.00699
in n-butanol, 313.15 K | 0.00888
in n-butanol, 318.15 K | 0.0111
in n-butanol, 323.15 K | 0.0139
in n-hexanol, 283.15 K | 0.000727
in n-hexanol, 288.15 K | 0.000986
in n-hexanol, 293.15 K | 0.00136
in n-hexanol, 298.15 K | 0.00198
in n-hexanol, 303.15 K | 0.00226
in n-hexanol, 308.15 K | 0.00283
in n-hexanol, 313.15 K | 0.0035
in n-hexanol, 318.15 K | 0.00437
in n-hexanol, 323.15 K | 0.00524
in n-pentanol, 283.15 K | 0.000747
in n-pentanol, 288.15 K | 0.00112
in n-pentanol, 293.15 K | 0.00161
in n-pentanol, 298.15 K | 0.00209
in n-pentanol, 303.15 K | 0.00293
in n-pentanol, 308.15 K | 0.00377
in n-pentanol, 313.15 K | 0.00471
in n-pentanol, 318.15 K | 0.00605
in n-pentanol, 323.15 K | 0.00745
in n-propanol, 283.15 K | 0.00412
in n-propanol, 288.15 K | 0.00492
in n-propanol, 293.15 K | 0.00631
in n-propanol, 298.15 K | 0.00751
in n-propanol, 303.15 K | 0.00903
in n-propanol, 308.15 K | 0.0109
in n-propanol, 313.15 K | 0.013
in n-propanol, 318.15 K | 0.0149
in n-propanol, 323.15 K | 0.0169
in sec-butanol, 283.15 K | 0.000587
in sec-butanol, 288.15 K | 0.000722
in sec-butanol, 293.15 K | 0.000867
in sec-butanol, 298.15 K | 0.00105
in sec-butanol, 303.15 K | 0.00123
in sec-butanol, 308.15 K | 0.00148
in sec-butanol, 313.15 K | 0.00177
in sec-butanol, 318.15 K | 0.00213
in sec-butanol, 323.15 K | 0.00252
in water, 283.15 K | 0.0664
in water, 285.65 K | 0.0718
in water, 288.15 K | 0.0769
in water, 290.65 K | 0.0825
in water, 293.15 K | 0.0879
in water, 295.65 K | 0.0943
in water, 298.15 K | 0.101
in water, 300.65 K | 0.106
in water, 303.15 K | 0.113
in water, 305.65 K | 0.12
in water, 308.15 K | 0.127
